# Measurements: patent US20030013898A1, “Pericyte protective agent” (Toray Industries, Inc., priority 1998, published 2003)
# Key:
# [1] = tested on: Pericytes isolated from bovine retina; assay: Pericyte protecting action: suppression of pericyte proliferation attributable to AGE; format: cell-based; settings: FIG. 1
# Procedure: Pericytes were isolated from bovine retina and maintained in Dulbecco's modified Eagle medium containing 20% foetal calf serum. The suppression of pericyte proliferation attributable to AGE was measured by adding 0.25 mg of AGE-BSA (prepared in Reference Example 1) to a culture plate into which 3.0×10^4 cells had been plated, then culturing at 37° C. for 5 days and performing measurements using a Packard Cyto Life. Separately, Beraprost sodium (BPS) was added at a final concentration of 0.1-10 μM prior to AGE addition. As controls, measurements were carried out in the same way for the case when treatment was carried out with AGE-BSA only and for the case where no treatment was carried out. For each group, the tests were carried out 10 times respectively.
# [2] = tested on: RAGE mRNA; assay: RAGE mRNA in pericytes by quantitative reverse transcription-polymerase chain reaction; format: cell-based, bovine; settings: 1 μM BPS treatment
# Procedure: Pericytes were isolated from bovine retina and maintained in Dulbecco's modified Eagle medium containing 20% foetal calf serum. Next, the quantity of the AGE receptor RAGE mRNA present in the pericytes was analyzed by means of a quantitative reverse transcription-polymerase chain reaction method, in accordance with the technique described in Biochemical and Biophysical Research Communications, Vol. 213, 682-683, 1995.
smiles,measurement,setting,value
"CC#CCC(C)[C@H](O)/C=C/[C@@H]1[C@H]2c3cccc(CCCC(=O)O)c3O[C@H]2C[C@H]1O (relative stereo) [BPS, (±)-(1R*,2R*,3aS*,8bS*)-2,3,3a,8b-tetrahydro-2-hydroxy-1-[(E)-(3S*)-3-hydroxy-4-methyl-1-octen-6-ynyl]-1H-cyclopenta[b]benzofuran-5-butyric acid]",improvement of AGE-induced suppression of pericyte proliferation,"[1]; BPS 0.1-10 μM added prior to 0.25 mg AGE-BSA, 3.0×10^4 cells, 37° C., 5 days",improved in a concentration-dependent manner
same,concentration at which improvement of suppression of proliferation was significant,"[1]; BPS added prior to AGE-BSA, 5 days culture",1 µM
same,expression of RAGE (mRNA),[2],expression of RAGE was suppressed
